Source: patent publication US20120202209A1, “CELL IMAGING METHOD FOR VIEWING MICRORNA BIOGENESIS IN THE CELLS” (Centre National de la Recherche Scientifique - CNRS, priority 2009, published 2012)

System: Microprocessor (Drosha and DGCR8) at the C19MC locus
Experiment: RNA FISH combined with immunofluorescence: recruitment of the Microprocessor on pri-miRNAs near the C19MC transcription site
Assay type: cell-based, human
Settings: cells treated with Actinomycin; data not shown
Source text: To determine whether the Microprocessor can be visualized on the pri-miRNAs of the freshly synthesized C19MC locus, the inventors combined RNA FISH experiments with experiments for detection of proteins by immunofluorescence, according to the techniques familiar to a person skilled in the art. The inventors were thus able to detect the endogenous Drosha or DGCR8 proteins (FIG. 4). The inventors observed a co-localization of intense immunofluorescence signals for Drosha and
Recruitment depends on transcription and probably occurs via interaction with the RNAs, since there is no detection in cells treated with Actinomycin, in which C19MC-HG is not detected near the transcription site of C19MC (data not shown).

Actinomycin
detection of C19MC-HG near the transcription site of C19MC: not detected | detection of Microprocessor recruitment on pri-miRNAs: no detection
